Values after ≈ are worked out from the molar mass of the structure shown. Active and inactive are the calls of the source.
Assays:
Staphylococcus aureus [1] = test: Antimicrobial activity against Staphylococcus aureus ATCC 29213 assessed as microbial growth inhibition in presence of K+ by susceptibility testing method; type: functional
Staphylococcus aureus [2] = test: Antimicrobial activity against Staphylococcus aureus ATCC 29213 assessed as microbial growth inhibition in presence of Fe3+ by susceptibility testing method; type: functional
Lipid bilayer [3] = test: Induction of pore formation in anionic TMoCL lipid bilayer membrane model assessed as pore-forming threshold concentration
Staphylococcus aureus [4] = test: Antimicrobial activity against Staphylococcus aureus ATCC 29213 assessed as microbial growth inhibition at pH 5 to 6 by susceptibility testing method; type: functional, organism-based
Staphylococcus aureus [5] = test: Antimicrobial activity against Staphylococcus aureus ATCC 29213 assessed as microbial growth inhibition measured after 18 hrs by CLSI based broth microdilution method; type: functional
Lipid bilayer [6] = test: Induction of pore formation in cationic DOPC/DOTAP lipid bilayer membrane model at 1 to 100 ug/ml; conditions: dose 1-100 µg/ml
Lipid bilayer [7] = test: Induction of pore formation in anionic TMoCL lipid bilayer membrane model at 1 to 100 ug/ml; conditions: dose 1-100 µg/ml
Staphylococcus aureus [8] = test: Antimicrobial activity against Staphylococcus aureus ATCC 29213 assessed as microbial growth inhibition in presence of Mn2+ by susceptibility testing method; type: functional
Lipid bilayer [9] = test: Induction of pore formation in anionic TMoCL lipid bilayer membrane model assessed as pore-forming threshold concentration in presence of CaCl2
Micrococcus luteus = test: Antimicrobial activity against Micrococcus luteus assessed as microbial growth inhibition in presence of Ca2+ by susceptibility testing method; type: functional, organism-based
Staphylococcus aureus [10] = test: Antimicrobial activity against Staphylococcus aureus ATCC 29213 assessed as microbial growth inhibition in presence of Mg2+ by susceptibility testing method; type: functional
Lipid bilayer [11] = test: Induction of pore formation in anionic DOPC/DOPG lipid bilayer membrane model at 1 to 100 ug/ml; conditions: dose 1-100 µg/ml
Lipid bilayer [12] = test: Induction of pore formation in anionic TOCL lipid bilayer membrane model at 1 to 100 ug/ml in presence of CaCl2; conditions: dose 1-100 µg/ml
Macrococcus caseolyticus = test: Antimicrobial activity against Macrococcus caseolyticus assessed as microbial growth inhibition in presence of Ca2+ by susceptibility testing method; type: functional, organism-based; conditions: Macrococcoides caseolyticum
Lipid bilayer [13] = test: Induction of pore formation in anionic TOCL lipid bilayer membrane model at 1 to 100 ug/ml; conditions: dose 1-100 µg/ml
Lipid bilayer [14] = test: Induction of pore formation in anionic DPhPG lipid bilayer membrane model at 1 to 100 ug/ml; conditions: dose 1-100 µg/ml
Staphylococcus aureus [15] = test: Antimicrobial activity against Staphylococcus aureus ATCC 29213 assessed as microbial growth inhibition in presence of Ca2+ by susceptibility testing method; type: functional
Staphylococcus aureus [16] = test: Antimicrobial activity against Staphylococcus aureus ATCC 29213 assessed as microbial growth inhibition in presence of Na+ by susceptibility testing method; type: functional
Escherichia coli [17] = test: Antimicrobial activity against Escherichia coli BL21 (DE3) assessed as microbial growth inhibition in presence of Ca2+ by susceptibility testing method; type: functional, organism-based
Staphylococcus aureus [18] = test: Antimicrobial activity against Staphylococcus aureus ATCC 29213 assessed as microbial growth inhibition in presence of Zn2+ by susceptibility testing method; type: functional
Pseudomonas aeruginosa = test: Antimicrobial activity against Pseudomonas aeruginosa assessed as microbial growth inhibition in presence of Ca2+ by susceptibility testing method; type: functional, organism-based
Staphylococcus aureus [19] = test: Antimicrobial activity against Staphylococcus aureus ATCC 29213 assessed as microbial growth inhibition in presence of <=200 mM of (H2PO4)-/(HPO4)2- by susceptibility testing method; type: functional, organism-based
Lipid bilayer [20] = test: Induction of pore formation in cationic DOPC/DOTAP lipid bilayer membrane model at 1 to 100 ug/ml in presence of CaCl2; conditions: dose 1-100 µg/ml
Bacillus cereus = test: Antimicrobial activity against Bacillus cereus X1 assessed as microbial growth inhibition in presence of Ca2+ by susceptibility testing method; type: functional, organism-based
Escherichia coli [21] = test: Antimicrobial activity against Escherichia coli expressing delta-tolC/KanR assessed as microbial growth inhibition in presence of Ca2+ by susceptibility testing method; type: functional, organism-based
Lipid bilayer [22] = test: Induction of pore formation in zwitter-ionic DOPC lipid bilayer membrane model at 1 to 100 ug/ml; conditions: dose 1-100 µg/ml
Lipid bilayer [23] = test: Induction of pore formation in anionic DOPC/DOPG lipid bilayer membrane model at 1 to 100 ug/ml in presence of CaCl2; conditions: dose 1-100 µg/ml
Lipid bilayer [24] = test: Induction of pore formation in anionic DPhPG lipid bilayer membrane model at 1 to 100 ug/ml in presence of CaCl2; conditions: dose 1-100 µg/ml
Staphylococcus aureus [25] = test: Antimicrobial activity against Staphylococcus aureus ATCC 29213 assessed as microbial growth inhibition in presence of Cu2+ by susceptibility testing method; type: functional
Staphylococcus aureus [26] = test: Antimicrobial activity against Staphylococcus aureus ATCC 29213 assessed as microbial growth inhibition at pH 5 by susceptibility testing method; type: functional
Staphylococcus aureus [27] = test: Antimicrobial activity against Staphylococcus aureus ATCC 29213 assessed as microbial growth inhibition at pH 8 by susceptibility testing method; type: functional
Staphylococcus aureus [28] = test: Antimicrobial activity against Staphylococcus aureus ATCC 29213 assessed as microbial growth inhibition at pH 9 by susceptibility testing method; type: functional
Staphylococcus aureus [29] = test: Antimicrobial activity against Staphylococcus aureus ATCC 29213 assessed as microbial growth inhibition at pH 7 by susceptibility testing method; type: functional
Staphylococcus aureus [30] = test: Antimicrobial activity against Staphylococcus aureus ATCC 29213 assessed as microbial growth inhibition in presence of (HCO3)- by susceptibility testing method; type: functional
Staphylococcus aureus [31] = test: Antimicrobial activity against Staphylococcus aureus ATCC 29213 assessed as microbial growth inhibition in presence of (CH3CO2)- by susceptibility testing method; type: functional
Staphylococcus aureus [32] = test: Antimicrobial activity against Staphylococcus aureus ATCC 29213 assessed as microbial growth inhibition at pH 10 by susceptibility testing method; type: functional
Staphylococcus aureus [33] = test: Antimicrobial activity against Staphylococcus aureus ATCC 29213 assessed as microbial growth inhibition at pH 6 by susceptibility testing method; type: functional
Staphylococcus aureus [34] = test: Antimicrobial activity against Staphylococcus aureus ATCC 29213 assessed as microbial growth inhibition in presence of (B4O7)2- by susceptibility testing method; type: functional
Staphylococcus aureus [35] = test: Antimicrobial activity against Staphylococcus aureus ATCC 29213 assessed as microbial growth inhibition in presence of (H2PO4)-/(HPO4)2- by susceptibility testing method; type: functional
Staphylococcus aureus [36] = test: Antimicrobial activity against Staphylococcus aureus ATCC 29213 assessed as microbial growth inhibition at pH 7.4 by susceptibility testing method; type: functional
Staphylococcus aureus [37] = test: Antimicrobial activity against Staphylococcus aureus ATCC 29213 assessed as microbial growth inhibition by susceptibility testing method; type: functional

CC(C)/C=C/C=C\C(=O)NCCC(=O)N[C@@H](CCCNC(=O)CCN)C(=O)NC(CC(O)c1ccccc1)C(=O)NC(C(=O)N[C@@H](Cc1ccc(OC2OC[C@H](O)[C@H](O)[C@H]2O)cc1)C(=O)NC1C(=O)N[C@H](CC(C)C)C(=O)N[C@@H](CC(=O)O)C(=O)NCC(=O)N[C@@H](CO)C(=O)NCC(=O)N[C@@H](CC(=O)c2ccc(Cl)cc2N)C(=O)N[C@@H](C)C(=O)N2CCC[C@H]2C(=O)NC1C)C(O)CC(=O)O (some centres not stated)
growth inhibition (GI) (Staphylococcus aureus [1]): Active | growth inhibition (GI) (Staphylococcus aureus [2]): Active | Activity (Lipid bilayer [3]): 10 µg/mL | growth inhibition (GI) (Staphylococcus aureus [4]): Active | MIC (Staphylococcus aureus [5]): 2 µg/mL (≈ 1.04 µM) | Activity (Lipid bilayer [6]): Active | Activity (Lipid bilayer [7]): Active | growth inhibition (GI) (Staphylococcus aureus [8]): Active | Activity (Lipid bilayer [9]): 7 µg/mL | inhibition (Micrococcus luteus): Active | growth inhibition (GI) (Staphylococcus aureus [10]): Active | Activity (Lipid bilayer [11]): Active | Activity (Lipid bilayer [12]): Active | inhibition (Macrococcus caseolyticus): Active | Activity (Lipid bilayer [13]): Active | Activity (Lipid bilayer [14]): Active | growth inhibition (GI) (Staphylococcus aureus [15]): Active | growth inhibition (GI) (Staphylococcus aureus [16]): Active | inhibition (Escherichia coli [17]): inactive | growth inhibition (GI) (Staphylococcus aureus [18]): Active | inhibition (Pseudomonas aeruginosa): inactive | Activity (Staphylococcus aureus [19]): inactive | Activity (Lipid bilayer [20]): Active | inhibition (Bacillus cereus): Active | inhibition (Escherichia coli [21]): inactive | Activity (Lipid bilayer [22]): inactive | Activity (Lipid bilayer [23]): Active | Activity (Lipid bilayer [24]): Active | growth inhibition (GI) (Staphylococcus aureus [25]): Active

CC(C)/C=C/C=C\C(=O)NCCC(=O)N[C@@H](CCCN)C(=O)NC(CC(O)c1ccccc1)C(=O)NC(C(=O)N[C@@H](Cc1ccc(OC2OC[C@H](O)[C@H](O)[C@H]2O)cc1)C(=O)NC1C(=O)N[C@H](CC(C)C)C(=O)N[C@@H](CC(=O)O)C(=O)NCC(=O)N[C@@H](CO)C(=O)NCC(=O)N[C@@H](CC(=O)c2ccc(Cl)cc2N)C(=O)N[C@@H](C)C(=O)N2CCC[C@H]2C(=O)NC1C)C(O)CC(=O)O (some centres not stated)
MIC (Staphylococcus aureus [1]): 1 µg/mL | MIC (Staphylococcus aureus [26]): 4 µg/mL (≈ 2.17 µM) | MIC (Staphylococcus aureus [27]): 1 µg/mL (≈ 0.541 µM) | MIC (Staphylococcus aureus [2]): 1 µg/mL | MIC (Staphylococcus aureus [28]): 0.5 µg/mL (≈ 0.271 µM) | Activity (Lipid bilayer [3]): 10 µg/mL | MIC (Staphylococcus aureus [29]): 2 µg/mL (≈ 1.08 µM) | MIC (Staphylococcus aureus [5]): 1 µg/mL (≈ 0.541 µM) | Activity (Lipid bilayer [6]): Active | Activity (Lipid bilayer [7]): Active | MIC (Staphylococcus aureus [8]): 1 µg/mL | Activity (Lipid bilayer [9]): 7 µg/mL | inhibition (Micrococcus luteus): Active | MIC (Staphylococcus aureus [10]): 1 µg/mL | Activity (Lipid bilayer [11]): Active | Activity (Lipid bilayer [12]): Active | inhibition (Macrococcus caseolyticus): Active | MIC (Staphylococcus aureus [30]): 0.5 µg/mL | MIC (Staphylococcus aureus [31]): 2 µg/mL | Activity (Lipid bilayer [13]): Active | MIC (Staphylococcus aureus [32]): 0.25 µg/mL (≈ 0.135 µM) | Activity (Lipid bilayer [14]): Active | MIC (Staphylococcus aureus [33]): 4 µg/mL (≈ 2.17 µM) | MIC (Staphylococcus aureus [15]): 0.125 µg/mL | MIC (Staphylococcus aureus [16]): 1 µg/mL | inhibition (Escherichia coli [17]): inactive | MIC (Staphylococcus aureus [18]): 1 µg/mL | MIC (Staphylococcus aureus [34]): 1 µg/mL | inhibition (Pseudomonas aeruginosa): inactive | Activity (Staphylococcus aureus [19]): inactive | Activity (Lipid bilayer [20]): Active | inhibition (Bacillus cereus): Active | inhibition (Escherichia coli [21]): inactive | Activity (Lipid bilayer [22]): inactive | MIC (Staphylococcus aureus [35]): 4 µg/mL | Activity (Lipid bilayer [23]): Active | MIC (Staphylococcus aureus [36]): 1 µg/mL (≈ 0.541 µM) | MIC (Staphylococcus aureus [37]): 1 µg/mL (≈ 0.541 µM) | Activity (Lipid bilayer [24]): Active | MIC (Staphylococcus aureus [25]): 1 µg/mL

CN[C@H](CC(C)C)C(=O)N[C@H]1C(=O)N[C@@H](CC(N)=O)C(=O)N[C@H]2C(=O)N[C@H]3C(=O)N[C@H](C(=O)N[C@H](C(=O)O)c4cc(O)cc(O)c4-c4cc3ccc4O)[C@H](O)c3ccc(c(Cl)c3)Oc3cc2cc(c3O[C@@H]2O[C@H](CO)[C@@H](O)[C@H](O)[C@H]2O[C@H]2C[C@](C)(N)[C@H](O)[C@H](C)O2)Oc2ccc(cc2Cl)[C@H]1O
growth inhibition (GI) (Staphylococcus aureus [4]): Active

CC(C)/C=C/C=C\C(=O)NCCC(=O)N[C@@H](CCCN)C(=O)NC(CC(O)c1ccccc1)C(=O)NC(C(=O)N[C@@H](Cc1ccc(O)cc1)C(=O)NC1C(=O)N[C@H](CC(C)C)C(=O)N[C@@H](CC(=O)O)C(=O)NCC(=O)N[C@@H](CO)C(=O)NCC(=O)N[C@@H](CC(=O)c2ccc(Cl)cc2N)C(=O)N[C@@H](C)C(=O)N2CCC[C@H]2C(=O)NC1C)C(O)CC(=O)O (some centres not stated)
MIC (Staphylococcus aureus [5]): 8 µg/mL (≈ 4.66 µM)

CC(C)/C=C/C=C\C(=O)NCCC(=O)N[C@@H](CCCNC(=O)CCN)C(=O)NC(CC(O)c1ccccc1)C(=O)NC(C(=O)N[C@@H](Cc1ccc(O)cc1)C(=O)NC1C(=O)N[C@H](CC(C)C)C(=O)N[C@@H](CC(=O)O)C(=O)NCC(=O)N[C@@H](CO)C(=O)NCC(=O)N[C@@H](CC(=O)c2ccc(Cl)cc2N)C(=O)N[C@@H](C)C(=O)N2CCC[C@H]2C(=O)NC1C)C(O)CC(=O)O (some centres not stated)
MIC (Staphylococcus aureus [5]): 8 µg/mL (≈ 4.48 µM)
